Tests used:
[1] = test system: adipocytes; experiment: Adipocyte lipolysis measured by glycerol release from isolated adipocytes (Examples I-II); type: cell-based, human; conditions: isoproterenol 10^-4 M, 30 minutes
Protocol: Tissue samples. Adipose tissues were obtained from 11 pre-menopaused women, aged under 45, who were undergoing liposuction or an aesthetic surgery in the supra-iliac region. Adipocyte isolation. The adipose tissues were first placed in Krebs buffer and transported to the laboratory. Fragments of fresh adipose tissue were then incubated in a collagenase type II solution (reconstituted in Krebs buffer, 5 mg of collagenase per gm of tissue; Sigma) for 30 minutes at 37° C. under agitation (100 rpm) in a controlled atmosphere (95% O2, 5% CO2) (Rodbell, 1964). After the incubation period, the cellular suspension was filtered through a 250 μm nylon mesh and separated from the stromal and vascular fraction by flotation. […] Adipocytes were counted using a Neubauer hemacytometer using trypan blue dye. […] Because free fatty acids can be re-esterified Inside the adipocyte while glycerol is not, lipolysis was evaluated by measuring the release of glycerol. Glycerol was indirectly measured by assessing the formation of NADH produced during its enzymatic transformation. NADH was measured using a spectrophotometer (Pharmacia LKB-Novaspec), at a wavelength of 340 nm. Results are expressed as μmol of glycerol released per 10^6 adipocytes per 30 minutes. […] The mean and standard deviation were calculated.

[2] = test system: adipocytes; experiment: Adipocyte lipolysis in the biphasic electrical stimulation study, adipocytes from 4 women (Example III); type: cell-based, human; conditions: suprailiac adipocytes of 4 women aged 40-52; non significant level (FIG. 2)
Protocol: It was tested if biphasic electrical stimulation can induce lipolysis in adipocyte. 4 women between 40-52 years of age were used as subject. Adipose tissue was obtained from suprailiac areas through liposuction. It is disclosed that isoproterenol (ISO) increased adipocyte lipolysis by 15% i.e. at a non significant level (FIG. 2). […] Moreover, the 4 mA biphasic stimulation increased basal lipolysis by 1.8 x thus at a lower level than the 6 mA stimulation.

Structure (SMILES): CC(C)NCC(O)c1ccc(O)c(O)c1 (stereo not drawn) [isoproterenol]
- Increase of adipocyte lipolysis compared to control values (BASAL) [1]: 2.6 fold
- Mean glycerol released (lipolysis) ([1]; 37° C., N=11 individuals, BASAL mean 1.4): 3.7 μM of glycerol
- Increase of adipocyte lipolysis [2]: 15%

From patent US7933647B2, “Methods of increasing lipolysis” (Transfert Plus, S.E.C., priority 2005, dated 2011)
